≈ marks a conversion by molar mass, not a printed value.

The nature of series [1]: Solubilization by fixing the micelle structure: drug concentration in the clear neutral liquid. The class given is physicochemical. The following applies: for clear liquid obtained: no alkali; for clear liquid obtained / concentration of AP-1067 in clear neutral liquid containing solubilized drug: 45° C.; for concentration of AP-1067 in clear neutral liquid containing solubilized drug: pH adjusted to neutral. Here is the method: About 10 mg of AP-1067 was dispersed into 1 mL of water. An aqueous solution of sodium hydroxide was added thereto to adjust the solution to pH=13 or above. The suspension was heated up to 45° C. to obtain a clear alkali aqueous liquid containing solubilized AP-1067 wherein a micelle of AP-1067 was formed. (AP-1067 concentration: about 10 mg/mL)
40 mg of sodium dodecyl sulfate (SDS) was added to the alkali aqueous liquid to fix the formed micelle structure. Then, an aqueous solution of hydrochloric acid was added dropwise thereto and its pH was adjusted to neutral to obtain a clear neutral liquid containing slubilized AP-1067 wherein the micelle of AP-1067 existed in the fixed manner. The concentration of AP-1067 at that time was 9.1 mg/mL.
About 10 mg of AP-1067 was dispersed into 1 mL of water. An aqueous solution of sodium hydroxide was added thereto to adjust the solution to pH=13 or above. The suspension was heated up to 45° C. to obtain a clear alkali aqueous solution of AP-1067 wherein a micelle of AP-1067 was formed. (AP-1067 concentration: about 10 mg/mL)
100 mg of Polysorbate 80 was added to the alkali aqueous solution to fix the formed micelle structure. Then, an aqueous solution of hydrochloric acid was added dropwise thereto and its pH was adjusted to neutral to obtain a clear neutral liquid containing solubilized AP-1067 wherein the micelle of AP-1067 existed in the fixed manner. The concentration of AP-1067 at that time was 10.3 mg/mL.
10 mg of AP-1067 and 40 mg of SDS were dispersed into 1 mL of water. The suspension was heated up to 45° C., and the ultrasonic treatment was conducted for 1.5 hours.
10 mg of AP-1067 and 100 mg of Polysorbate 80 were dispersed into 1 mL of water. The suspension was heated up to 45° C., and the ultrasonic treatment was conducted for 1.5 hours.
10 mg of APC0576 and 83 mg of cetylpyridinium chloride monohydrate were dispersed and dissolved into 1 mL of an aqueous solution of 1.5 mol/L hydrochloric acid. The suspension was heated up to 50° C., and the ultrasonic treatment was conducted thereto to obtain a clear acidic aqueous liquid containing solubilized APC0576 wherein a micelle of the poorly-soluble drug APC0576 existed in the fixed manner. (APC0576 concentration: about 10 mg/mL)
An aqueous solution of 10 mol/L sodium hydroxide was added dropwise to the acidic aqueous liquid to adjust its pH to nearly neutral to obtain about 7 mg/mL of a clear liquid containing solubilized APC0576 wherein the micelle of APC0576 existed in the fixed manner. (see FIG. 3)
10 mg of APC0576 and 85 mg of cetylpyridinium chloride monohydrate were dissolved into 1 mL of water. The suspension was heated up to 50° C., and the ultrasonic treatment was conducted for 1.5 hours. […] (see FIG. 3)

Series [2] is described as follows: Solubility in water at room temperature.

For the molecule `CC1(C)C[C@@H]1C(=O)Nc1ccc(Oc2ccc(NC(=O)[C@H]3CC3(C)C)cn2)cc1` [APC0576, 5-(((S)-2,2-dimethyl-cyclopropancarbonyl)amino)-2-(4-(((S)-2,2-dimethylcyclopropancarbonyl)amino)phenoxy)pyridine], the “clear solubilized solution obtained” value in series [1] (Comparative Example 3: 10 mg drug and 85 mg cetylpyridinium chloride monohydrate in 1 mL water, no acid, 50° C., ultrasonic 1.5 hours) is “could not be obtained”. The “concentration of clear liquid containing solubilized APC0576” value in series [1] (Example 3: 83 mg cetylpyridinium chloride monohydrate, 1.5 mol/L hydrochloric acid, 50° C., ultrasonic, pH adjusted to nearly neutral) is “about 7 mg/mL”. For the same molecule, the solubility (usually how much of the substance goes into solution per volume) in series [2] was around 1.6 µg/mL (≈ 4.07 µM).

As for `Cl.NS(=O)(=O)c1ccc(/C=C/CN2CCC(=C3c4ccccc4C=Cc4ccccc43)CC2)cc1` [AP-1067, (4-(5H-dibenzo[a,d]cyclohepten-5-ylidene)-1-[3-[4-sulfamoylphenyl]-2(E)-propenyl]-piperidine, monohydro-chloride)], the clear liquid obtained result in series [1] (Comparative Example 1: 10 mg drug and 40 mg SDS in 1 mL water, ultrasonic 1.5 hours) is given as “could not be obtained”; in series [1] (Comparative Example 2: 10 mg drug and 100 mg Polysorbate 80 in 1 mL water, ultrasonic 1.5 hours), “could not be obtained”. The “concentration of AP-1067 in clear neutral liquid containing solubilized drug” value amounted to 9100 µg/mL in series [1] (Example 1: micelle formed at pH=13 or above, fixed with 40 mg SDS) and 10300 µg/mL in series [1] (Example 2: micelle formed at pH=13 or above, fixed with 100 mg Polysorbate 80). This molecule gave a solubility in series [2] of around 30 µg/mL.

The record behind these values is US20060140991A1, “Pharmaceutical preparations having an improved solubility” (AJINOMOTO CO. INC, priority 2003, published 2006).
